From US8546438B2, “Substituted (thiophenyl-carbonyl)imidazolidinones, and use thereof” (priority 2008, dated 2013)

Tests used:
HIV-1LAI = test: H9 assay with wild-type HIV-1LAI (AlamarBlue, supernatant infection); format: cell-based; settings: Human immunodeficiency virus 1, H9 cells, 10% FCS
Method: For the mixture for a 96-well MTP, 3 million PBLs are pelleted, suspended in 1 ml of RPMI 1640 medium/10% FCS and incubated together with a suitable amount of HIV-1LAI (NIH AIDS Research & Reference Reagent Program, Germantown, USA) at 37° C. for 2 hours (pellet infection). Unadsorbed viruses are subsequently washed out with PBS, and the infected cells are pelleted again and suspended in 18 ml of RPMI 1640 medium/10% FCS/interleukin-2 (40 U/ml). 180 μl thereof are pipetted into each well of a white 96-well MTP with 20 μl of test substance in suitable dilution. Alternatively, after preparation of the substance dilutions in the MTP, the HIV is pipetted in together with the cells and is not washed out again (supernatant infection). In order to avoid edge effects, the wells at the edge of the MTP are not used for substance dilutions. The second vertical row of the MTP contains only infected cells (virus control) and the eleventh vertical row only uninfected cells (cell control), in each case in RPMI 1640 medium/10% FCS/interleukin-2 (40 U/ml). The other wells of the MTP contain the compounds of the invention in various concentrations starting from the third vertical row, from which the test substances are diluted in 3-fold steps up to the tenth vertical row 3^7-fold. The test substances are dissolved in DMSO, whereby the final DMSO concentration in the test mixture is 1%. The test mixtures are incubated at 37° C./5% CO2. After 5 and 7 days, 50 μl of cell-free supernatant are removed from each well to determine the amount of p24 present by means of a p24 ELISA (HIV-1 p24^CA Antigen Capture Assay Kit, NCI-Frederick Cancer Research and Development Center, Frederick, USA). From the resulting values of the photometric evaluation (450/620 nm) the EC50 values of the test substances are determined as the concentration at which the amount of p24 is 50% of the untreated infected cells.
Alternatively, H9 cells (ATCC, Wesel, Germany) are employed instead of PBLs for testing the test substances. H9 cells are incubated in RPMI 1640 medium with 2% or 10% FCS as a HIV-1LAI supernatant infection at 37° C./5% CO2, (20 μl of substance dilution and 80 μl of cells/virus per well) in accordance with the pattern described above for 5 days. Subsequently, 10 μl of AlamarBlue (Invitrogen, Karlsruhe, Germany) are added to each well, and the MTPs are incubated at 37° C. for 3 hours before the fluorimetric evaluation takes place (544/590 nm). The resulting values are about 40 000 for the untreated uninfected cells and about 7000 for the untreated infected cells. In the low concentration range, the EC50 values of the test substances are determined as the concentration at which the fluorescence is 50% of the untreated uninfected cells (in each case subtracting the values of the untreated infected cells). In addition, in the high concentration range, the CC50 values of the test substances are determined as the concentration at which the fluorescence is 50% of the untreated uninfected cells (in each case subtracting the values of the untreated infected cells).

HIV-1NL4-3 wt = test: Light assay with wild-type HI reporter virus in MT4 7F2 cells; format: cell-based; settings: Human immunodeficiency virus 1, read-out: EC50(nM) MT4 7F2 cells HIV-1NL4-3 wt 2% FCS
Method: (§1) For the mixture for a 96-well MTP, 3 million MT4 7F2 cells are pelleted, suspended in 1 ml of RPMI 1640 medium without phenol red (Invitrogen, Karlsruhe, Germany)/10% FCS/10% AIM-V (Invitrogen, Karlsruhe, Germany) and incubated together with a suitable amount of the corresponding HIV-1NL4-3 reporter virus at 37° C. for 2 hours (pellet infection). Unadsorbed viruses are subsequently washed out with PBS, and the infected cells are pelleted again and suspended in 8 ml of RPMI 1640 medium without phenol red/2% or 10% FCS/10% AIM-V. 80 μl thereof are pipetted into each well of a white 96-well MTP with 20 μl of test substance in suitable dilution. To avoid edge effects, the wells on the edge of the MTP are not used for substance dilutions. The second vertical row of the MTP contains only infected cells (virus control) and the eleventh vertical row only uninfected cells (cell control), in each case in RPMI 1640 medium without phenol red/2% or 10% FCS/10% AIM-V. The other wells of the MTP contain the compounds of the invention in various concentrations starting from the third vertical row, from which the test substances are diluted in 3-fold steps up to the tenth vertical row 3^7-fold. The test substances are dissolved in DMSO, whereby the final DMSO concentration in the test mixture is 1%. The test mixtures are incubated at 37° C./5% CO2 for five days and, after the addition of 15 μl of Lu164 substrate (5 mg/ml coelenterazine dissolved in 30 μM glutathione/DMSO, 100 mM NaCl, 1M MES, 100 mM glutathione), evaluated by luminometry. The resulting values are in the region of 1 000 000 RLUs (relative light units) for the virus control and 300 to 400 RLUs for the cell control. The EC50 values of the test substances are determined as the concentration at which the virus replication measured in RLUs is 50% of the untreated infected cells.

HIV-1NL4-3 K103N-Y181C = test: Light assay with inhibitor-resistant HI reporter virus in MT4 7F2 cells; format: cell-based; settings: Human immunodeficiency virus 1, read-out: EC50(nM) MT4 7F2 cells HIV-1NL4-3 K103N-Y181C 2% FCS
Method: as §1

reverse transcriptase = target: T1, reverse transcriptase (Human immunodeficiency virus type 1 group M subtype B, UniProt P04585); test: Biochemical reverse transcriptase assay (Reverse Transcriptase Assay, colorimetric, Roche); settings: read-out: IC50(nM) RT assay
T1 construct: negative control (mixture without reverse transcriptase); purchased Roche Diagnostics GmbH, Mannheim, Germany
Method: The “Reverse Transcriptase Assay, colorimetric” (Roche Diagnostics GmbH, Mannheim, Germany) is used in accordance with the manufacturer's information. The test substances are dissolved in DMSO and are used in the test diluted in 5-fold steps (final DMSO concentration 1%). The resulting values of the photometric evaluation (405/492 nm) are less than 0.1 for the negative control (mixture without reverse transcriptase) and are in the region of 1.5 for the positive control (mixture without test substance). The IC50 values of the test substances are determined as the concentration of the test substance dilution at which the measured optical density is 50% of the positive control.

## N#Cc1cc(-c2sc(C(=O)N3CNC(=O)C3)cc2-c2cccc(Cl)c2)ccc1F [Example 6, 5-{3-(3-Chlorophenyl)-5-[(4-oxoimidazolidin-1-yl)carbonyl]thiophen-2-yl}-2-fluorobenzenecarbonitrile]
HIV-1LAI
  EC50: 900 nM
HIV-1NL4-3 wt
  EC50: 165 nM
HIV-1NL4-3 K103N-Y181C
  EC50: 348 nM

## N#Cc1cc(F)cc(-c2sc(C(=O)N3CNC(=O)C3)cc2-c2ccc(F)c(Cl)c2)c1 [Example 10, 3-{3-(3-Chloro-4-fluorophenyl)-5-[(4-oxoimidazolidin-1-yl)carbonyl]thiophen-2-yl}-5-fluorobenzenecarbonitrile]
HIV-1LAI
  EC50: 34 nM
HIV-1NL4-3 wt
  EC50: 5 nM
HIV-1NL4-3 K103N-Y181C
  EC50: 40 nM

## O=C1CN(C(=O)c2cc(-c3ccc(F)c(Cl)c3)c(-c3cc(F)cc(Cl)c3)s2)CN1 [Example 2, 1-{[4-(3-Chloro-4-fluorophenyl)-5-(3-chloro-5-fluorophenyl)thiophen-2-yl]carbonyl}imidazolidin-4-one]
Reverse transcriptase
  IC50: 920 nM
HIV-1LAI
  EC50: 68 nM
HIV-1NL4-3 wt
  EC50: 20 nM
HIV-1NL4-3 K103N-Y181C
  EC50: 176 nM

## O=C1CN(C(=O)c2cc(-c3ccc(F)c(Cl)c3)c(-c3cccc(Cl)c3)s2)CN1 [Example 9, 1-{[4-(3-Chloro-4-fluorophenyl)-5-(3-chlorophenyl)thiophen-2-yl]carbonyl}imidazolidin-4-one]
HIV-1LAI
  EC50: 593 nM
HIV-1NL4-3 wt
  EC50: 35 nM
HIV-1NL4-3 K103N-Y181C
  EC50: 260 nM

## N#Cc1cc(-c2cc(C(=O)N3CNC(=O)C3)sc2-c2cccc(Cl)c2)ccc1F [Example 8, 5-{2-(3-Chlorophenyl)-5-[(4-oxoimidazolidin-1-yl)carbonyl]thiophen-3-yl}-2-fluorobenzenecarbonitrile]
HIV-1LAI
  EC50: 103 nM
HIV-1NL4-3 wt
  EC50: 5 nM
HIV-1NL4-3 K103N-Y181C
  EC50: 121 nM

## N#Cc1cccc(-c2cc(C(=O)N3CNC(=O)C3)sc2-c2cc(F)cc(Cl)c2)c1 [Example 1, 3-{2-(3-Chloro-5-fluorophenyl)-5-[(4-oxoimidazolidin-1-yl)carbonyl]thiophen-3-yl}benzenecarbonitrile]
HIV-1LAI
  EC50: 9 nM
HIV-1NL4-3 wt
  EC50: 1 nM
HIV-1NL4-3 K103N-Y181C
  EC50: 45 nM

## N#Cc1cc(F)cc(-c2sc(C(=O)N3CNC(=O)C3)cc2-c2cccc(Cl)c2)c1 [Example 11, 3-{3-(3-Chlorophenyl)-5-[(4-oxoimidazolidin-1-yl)carbonyl]thiophen-2-yl}-5-fluorobenzenecarbonitrile]
HIV-1LAI
  EC50: 22 nM
HIV-1NL4-3 wt
  EC50: 2 nM
HIV-1NL4-3 K103N-Y181C
  EC50: 123 nM

## O=C1CN(C(=O)c2cc(-c3cccc(Cl)c3)c(-c3cc(F)cc(Cl)c3)s2)CN1 [Example 5, 1-{[5-(3-Chloro-5-fluorophenyl)-4-(3-chlorophenyl)thiophen-2-yl]carbonyl}imidazolidin-4-one]
Reverse transcriptase
  IC50: 2170 nM
HIV-1LAI
  EC50: 85 nM
HIV-1NL4-3 wt
  EC50: 21 nM
HIV-1NL4-3 K103N-Y181C
  EC50: 258 nM

## N#Cc1cc(-c2cc(C(=O)N3CNC(=O)C3)sc2-c2cc(F)cc(Cl)c2)ccc1F [Example 4, 5-{2-(3-Chloro-5-fluorophenyl)-5-[(4-oxoimidazolidin-1-yl)carbonyl]thiophen-3-yl}-2-fluorobenzenecarbonitrile]
HIV-1LAI
  EC50: 12 nM
HIV-1NL4-3 wt
  EC50: < 1.5 nM
HIV-1NL4-3 K103N-Y181C
  EC50: 44 nM

## N#Cc1cccc(-c2cc(C(=O)N3CNC(=O)C3)sc2-c2cccc(Cl)c2)c1 [Example 3, 3-{2-(3-Chlorophenyl)-5-[(4-oxoimidazolidin-1-yl)carbonyl]thiophen-3-yl}benzenecarbonitrile]
Reverse transcriptase
  IC50: 740 nM
HIV-1LAI
  EC50: 71 nM
HIV-1NL4-3 wt
  EC50: 5 nM
HIV-1NL4-3 K103N-Y181C
  EC50: 100 nM

## O=C1CN(C(=O)c2cc(-c3cccc(Cl)c3)c(-c3cccc(OC(F)(F)F)c3)s2)CN1 [Example 7, 1-({4-(3-Chlorophenyl)-5-[3-(trifluoromethoxy)phenyl]thiophen-2-yl}carbonyl)imidazolidin-4-one]
HIV-1LAI
  EC50: 1410 nM
HIV-1NL4-3 wt
  EC50: 100 nM
HIV-1NL4-3 K103N-Y181C
  EC50: 150 nM
